We go through eight compounds from PMC9138151, “Bioactive Phytochemicals of Citrus reticulata Seeds—An Example of Waste Product Rich in Healthy Skin Promoting Agents” (Antioxidants, 2022).

One assay addresses Xanthine oxidase (Homo sapiens, UniProt P47989). The assay is described as follows: In vitro assay of xanthine oxidase activity. It is filed as biochemical. The following applies: for IC50: ± SD, triplicate. Here is the method:
Xanthine oxidase (XO) inhibitory potential was carried out according to the previously described method. The color produced because of hydrogen peroxide release during the process of oxidation of XO was measured at 570 nm using the plate reader EPOCH™ “MICROPLATE READER (BIOTEK)”. Forty-four microliters of xanthine oxidase buffer were mixed with 2 µL of xanthine substrate solution and 2 µL of XO. […] was applied as a positive control. This experiment was performed in triplicate.

Another assay concerns injured skin. The following applies: cited from earlier work.
The next assay concerns wound healing. Also on record: method as in PMID 28989011. The following applies: cited from earlier work.
The target of a further assay is Tyrosinase (Agaricus bisporus, UniProt C7FF04). The assay is described as follows: In vitro assay of tyrosinase activity (DOPAchrome). The class given is biochemical. On the procedure: The tyrosinase inhibitory activity was measured from the following equation: inhibitory activity (%) = (1 − A/B) × 100, (9) where A and B are the absorbance of the mixture in presence or absence of test flavonoid, respectively. Every experiment was done in triplicate.
Chain of Tyrosinase (C7FF04 1-392): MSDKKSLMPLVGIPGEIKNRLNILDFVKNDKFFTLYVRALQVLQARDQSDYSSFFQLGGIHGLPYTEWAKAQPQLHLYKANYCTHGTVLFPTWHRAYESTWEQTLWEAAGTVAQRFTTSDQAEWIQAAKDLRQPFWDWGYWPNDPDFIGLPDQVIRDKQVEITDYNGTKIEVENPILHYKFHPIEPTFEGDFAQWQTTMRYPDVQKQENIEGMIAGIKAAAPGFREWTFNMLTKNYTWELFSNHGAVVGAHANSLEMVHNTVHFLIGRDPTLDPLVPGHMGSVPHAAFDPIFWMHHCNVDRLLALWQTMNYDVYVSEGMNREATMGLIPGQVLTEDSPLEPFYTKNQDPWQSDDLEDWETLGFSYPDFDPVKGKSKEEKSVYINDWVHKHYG

Assay [1] concerns incisional and excisional wounds. The following applies: topical application; diabetic and non-diabetic rats; cited from earlier work.
Another assay relates to cutaneous wound healing. Also on record: method as in PMID 20193736. To be noted: cited from earlier work.
Assay [2] has as its system tissue transglutaminase-2, TGF-1, and vascular endothelial growth factor. Also on record: method as in PMID 20590611. The following applies: sham OVX rats; cited from earlier work.

Where only a bound is given, the exact number is not on record here.

Chain of Xanthine oxidase (P47989 whole entry, species assumed): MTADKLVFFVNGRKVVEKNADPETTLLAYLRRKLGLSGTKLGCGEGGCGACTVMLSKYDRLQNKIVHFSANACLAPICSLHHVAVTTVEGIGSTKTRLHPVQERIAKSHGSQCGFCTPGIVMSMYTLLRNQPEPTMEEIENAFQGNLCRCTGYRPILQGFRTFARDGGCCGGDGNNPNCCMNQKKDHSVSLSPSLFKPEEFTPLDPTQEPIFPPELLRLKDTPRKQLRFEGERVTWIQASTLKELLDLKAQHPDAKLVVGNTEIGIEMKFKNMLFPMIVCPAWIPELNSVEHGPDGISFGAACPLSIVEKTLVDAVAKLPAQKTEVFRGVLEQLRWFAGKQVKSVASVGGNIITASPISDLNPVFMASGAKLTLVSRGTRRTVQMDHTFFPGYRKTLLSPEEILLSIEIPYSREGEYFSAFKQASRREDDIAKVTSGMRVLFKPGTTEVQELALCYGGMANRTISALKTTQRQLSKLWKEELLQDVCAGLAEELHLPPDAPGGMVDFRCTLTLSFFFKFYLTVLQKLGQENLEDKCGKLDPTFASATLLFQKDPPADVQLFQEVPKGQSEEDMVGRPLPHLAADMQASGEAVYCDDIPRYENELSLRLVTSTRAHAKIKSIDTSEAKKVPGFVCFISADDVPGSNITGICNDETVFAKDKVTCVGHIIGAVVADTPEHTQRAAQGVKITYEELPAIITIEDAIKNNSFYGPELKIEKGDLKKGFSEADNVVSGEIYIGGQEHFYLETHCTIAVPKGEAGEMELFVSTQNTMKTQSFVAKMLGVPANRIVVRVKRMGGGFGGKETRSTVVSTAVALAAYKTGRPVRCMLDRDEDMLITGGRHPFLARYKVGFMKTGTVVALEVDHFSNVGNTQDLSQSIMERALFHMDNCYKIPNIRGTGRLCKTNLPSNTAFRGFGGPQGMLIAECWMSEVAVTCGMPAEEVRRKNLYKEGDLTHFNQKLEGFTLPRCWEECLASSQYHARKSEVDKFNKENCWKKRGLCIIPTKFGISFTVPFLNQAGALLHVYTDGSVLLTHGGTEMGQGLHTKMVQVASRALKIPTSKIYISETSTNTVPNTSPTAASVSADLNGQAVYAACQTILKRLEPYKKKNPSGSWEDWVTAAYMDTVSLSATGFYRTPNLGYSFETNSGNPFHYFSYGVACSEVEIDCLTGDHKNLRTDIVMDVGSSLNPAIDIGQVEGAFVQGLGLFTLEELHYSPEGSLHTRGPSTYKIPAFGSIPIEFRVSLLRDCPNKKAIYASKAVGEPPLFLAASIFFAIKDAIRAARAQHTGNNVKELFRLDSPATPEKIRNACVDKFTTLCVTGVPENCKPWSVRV

As a reminder, the IC50 is the point on the concentration scale where inhibition reaches its midpoint. A higher IC50 goes with weaker potency in that assay. Regarding `N[C@@H](Cn1ccc(=O)c(O)c1)C(=O)O` [L-mimosine, reference compound], it took 3.63 ± 0.18 µM to reach half-maximal inhibition against Xanthine oxidase (IC50).
`COc1ccc([C@@H]2CC(=O)c3c(O)cc(O[C@@H]4O[C@H](CO[C@@H]5O[C@@H](C)[C@H](O)[C@@H](O)[C@H]5O)[C@@H](O)[C@H](O)[C@H]4O)cc3O2)cc1O` [Hesperidin]: in the assay on injured skin, the “healing of injured skin” value is “sufficient healing benefits on injured skin”.
In the case of `O=c1c(-c2ccc(O)cc2)c(O)oc2cc(O)cc(O)c12` [Compound 4, 2-hydroxygenistein], in the assay on wound healing, the wound healing entry is “promote wound healing”.
`O=c1c(O)c(-c2ccc(O)cc2)oc2cc(O[C@@H]3O[C@H](CO)[C@@H](O)[C@H](O)[C@H]3O)cc(O)c12` [Compound 3, kaempferol-7-O-β-D-glucopyranoside] displayed an IC50 on Xanthine oxidase of 6.39 ± 0.36 µM. In addition, the “activity against tyrosinase (in words)” value at Tyrosinase is “inactive or weakly active”.
In the case of `O=c1c(O)c(-c2ccc(O[C@@H]3O[C@H](CO)[C@@H](O)[C@H](O)[C@H]3O)cc2)oc2cc(O)cc(O)c12` [Compound 2, kaempferol-4′-O-β-D-glucopyranoside], at Xanthine oxidase, the “activity against xanthine oxidase (in words)” value is “weak or inactivity” and the IC50 is 73.7 ± 2.33 µM. In addition, the “activity against tyrosinase (in words)” value at Tyrosinase was “inactive or weakly active”.
`O=c1c(O)c(-c2ccc(O)cc2)oc2cc(O)cc(O)c12` [Compound 1, kaempferol]: in assay [1], the wound healing effect entry is listed as “healing effects”.
In the case of `COc1ccc([C@@H]2CC(=O)c3c(O)cc(O)cc3O2)cc1O` [Compound 5, hesperetin], at Xanthine oxidase, the “activity against xanthine oxidase (in words)” value was “weak or inactivity” and the IC50 was greater than 100 µM.
`O=c1c(-c2ccc(O)cc2)coc2cc(O)cc(O)c12` [Genistein]: the wound healing entry in the assay on cutaneous wound healing is given as “accelerated wound healing”. Moreover, the “effect on tissue transglutaminase-2, TGF-1 and vascular endothelial growth factor” value in assay [2] was “reduced tissue transglutaminase-2, TGF-1, and vascular endothelial growth factor”.
